Measurements taken from patent US20250197405A1, “HETEROAROMATIC COMPOUNDS AS PKMYT1 INHIBITORS AND USE THEREOF” (INSILICO MEDICINE IP LIMITED, priority 2022, published 2025).

biological target: PKMYT1 (Homo sapiens (Human), UniProt Q99640); assay: PKMYT1 HTRF assay; assay type: binding; settings: Tracer 178, GST-Tb, compound 10 μM to 0.5 nM
Experimental: Compound serial dilution was performed by Echo, and the final concentrations varied from 10 μM to 0.5 nM. 5 μL/well of Enzyme solution was added to the assay plate containing the compound. The plate was centrifuged at 1000 rpm for 1 min, and incubated at 25° C. for 15 min. […] Next, 5 μL of GST-Tb was added into the assay plate, the plate was centrifuged at 1000 rpm for 1 min, and incubated at 25° C. for 15 min. The assay plate was read on Envision.

PKMYT1, sequence (Q99640 whole entry): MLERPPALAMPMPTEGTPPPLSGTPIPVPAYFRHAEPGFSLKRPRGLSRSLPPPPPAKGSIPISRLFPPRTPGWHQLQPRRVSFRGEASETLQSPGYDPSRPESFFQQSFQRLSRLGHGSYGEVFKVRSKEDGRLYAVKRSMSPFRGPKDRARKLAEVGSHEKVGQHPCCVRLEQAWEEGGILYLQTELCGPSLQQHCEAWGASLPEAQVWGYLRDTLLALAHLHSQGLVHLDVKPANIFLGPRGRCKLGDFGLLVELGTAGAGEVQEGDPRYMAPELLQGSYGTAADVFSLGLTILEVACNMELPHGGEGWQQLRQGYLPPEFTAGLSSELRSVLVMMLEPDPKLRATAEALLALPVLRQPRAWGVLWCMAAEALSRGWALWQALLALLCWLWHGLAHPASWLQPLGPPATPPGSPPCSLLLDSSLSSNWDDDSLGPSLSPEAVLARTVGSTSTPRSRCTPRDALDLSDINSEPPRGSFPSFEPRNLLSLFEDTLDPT

Point of comparison: `Cc1ncc2c(C(N)=O)c(N)n(-c3c(C)ccc(O)c3Cl)c2n1` [Compound 4, 6-amino-7-(2-chloro-3-hydroxy-6-methylphenyl)-2-methylpyrrolo[2,3-d] pyrimidine-5-carboxamide], IC50 4.1 nM. Against it:
- COc1nc(C)nc2c1c(C(N)=O)c(N)n2-c1c(C)ccc(O)c1C (atropisomer, axis not shown) [Compound 7] — 2.7-fold lower, 1.5 nM
- Cc1nc(N2CCC2)c2c(C(N)=O)c(N)n(-c3c(C)ccc(O)c3C)c2n1 (atropisomer, axis not shown) [Compound 8] — 3.2-fold higher, 13 nM
- Cc1nc(Oc2cnn(C)c2)c2c(C(N)=O)c(N)n(-c3c(C)ccc(O)c3C)c2n1 (atropisomer, axis not shown) [Compound 9] — within 1.5-fold, 2.8 nM
- Cc1ccc(O)c(C)c1-n1c(N)c(C(N)=O)c2cnc(C(F)(F)F)nc21 [Compound 2] — 2.2-fold higher, 8.9 nM
- Cc1ccc(O)c(C)c1-n1c(N)c(C(N)=O)c2c(=O)n(C)c(C)cc21 [Compound 3, 2-amino-1-(3-hydroxy-2,6-dimethylphenyl)-5,6-dimethyl-4-oxopyrrolo[3,2-c]pyridine-3-carboxamide] — 2.9-fold higher, 11.9 nM
- Cc1nc(OC(F)F)c2c(C(N)=O)c(N)n(-c3c(C)ccc(O)c3C)c2n1 [Compound 10] — within 1.5-fold, 3.4 nM
- Cc1nc(OCF)c2c(C(N)=O)c(N)n(-c3c(C)ccc(O)c3C)c2n1 [Compound 11] — 1.8-fold lower, 2.3 nM
- Cc1ccc(O)c(C)c1-n1c(N)c(C(N)=O)c2c(=O)n(CF)c(C)nc21 [Compound 12-P2] — 2.7-fold lower, 1.5 nM
